Laboratory results reported in patent US20240083892A1 (BISICHEM CO., LTD., priority 2021, published 2024).
pIC50: −log10 of the molar value.

Assays:
RIPK1 [1] = target: T1, RIPK1 (Homo sapiens, UniProt Q13546); assay: Cell-based necroptosis assay for RIPK1 activity (cell viability by CCK-8); settings: HT-29 cells; Z-VAD-FMK 20 μM, human TNFα 10 ng/ml, SM-164 100 nM; 24 h; read-out: Cell-base RIPK1 activity: Necroptosis
T1 construct: endogenous in cells; host or cells: HT-29 (KCLB 30038)
T1 sequence (Q13546 1-671): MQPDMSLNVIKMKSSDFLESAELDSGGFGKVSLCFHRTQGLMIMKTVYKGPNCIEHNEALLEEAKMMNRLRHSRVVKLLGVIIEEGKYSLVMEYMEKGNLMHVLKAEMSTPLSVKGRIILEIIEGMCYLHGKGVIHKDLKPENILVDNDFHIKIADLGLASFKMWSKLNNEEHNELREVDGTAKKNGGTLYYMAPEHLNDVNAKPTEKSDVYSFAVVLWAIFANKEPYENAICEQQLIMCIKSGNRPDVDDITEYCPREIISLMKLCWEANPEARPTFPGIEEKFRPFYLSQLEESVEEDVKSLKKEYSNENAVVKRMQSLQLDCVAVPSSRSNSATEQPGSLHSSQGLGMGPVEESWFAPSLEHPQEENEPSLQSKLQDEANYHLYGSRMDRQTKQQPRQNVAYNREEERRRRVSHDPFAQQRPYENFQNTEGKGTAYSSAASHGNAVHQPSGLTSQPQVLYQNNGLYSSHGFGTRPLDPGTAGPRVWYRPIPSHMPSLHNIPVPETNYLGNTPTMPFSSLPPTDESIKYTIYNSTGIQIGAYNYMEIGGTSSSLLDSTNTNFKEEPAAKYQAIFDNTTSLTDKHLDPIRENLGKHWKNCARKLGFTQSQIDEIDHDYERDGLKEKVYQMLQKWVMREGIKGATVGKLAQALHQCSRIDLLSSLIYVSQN
Method: (§1) Human colon carcinoma cell HT-29 (KCLB 30038), BV2 mouse microglial cell (cell was a kind gift from Dr. Nak-Yun Sung, Senior researcher at Korea Prime Pharmacy CO., LTD.) and human microglial cell HMC3 (ATCC® CRL-3304™). HT-29 cell was grown in Roswell Park Memorial Institute (RPMI) 1640, BV2 cell was grown in Dulbecco's Modified Eagle's Medium (DMEM) and HMC3 cell was grown in Minimum Essential Media Eagle (MEM) supplemented with 10% fetal bovine serum and 1% mixture of penicillin and streptomycin (Gibco). Cells were maintained at 37° C. in a humidified 5% CO2 atmosphere.
To measure the activity of RIPK1 inhibitor in necroptotic cells, HT-29 cells were treated by control DMSO, human TNFα (Peprotech, Rocky Hill, USA), SM-164 (Biovision, California, USA) and a pan-caspase inhibitor Z-VAD-FMK (Invivogen, San Diego, USA). Cells were pretreated with Z-VAD-FMK 20 μM. After 30 min, human TNFα 10 ng/ml, SM-164 100 nM and RIPK1 Inhibitor (0.0001, 0.001, 0.01, 0.02, 0.05, 0.1, 1, 10 uM) were treated for 24 h. Cell viability was measured by Cell Counting Kit 8 (CCK-8) (Dong-in, Seoul, Korea).

RIPK1 [2] = target: T1, RIPK1; assay: Immunoblotting of TNFα induced phospho-RIPK1 (ser 166) levels; format: cell-based; settings: HMC3 cells; Z-VAD-FMK, human TNFα 20 ng/ml, SM-164 100 nM; 7 h, serum free media; read-out: Cell-base RIPK1 activity: phspho-RIPK1 (Ser166)
Method: as §1
Biological activity of the compounds of RIPK1 inhibitor was determined by measuring their ability to inhibitor TNFα induced phospho-RIPK1 (ser 166) levels, phospho-RIPK3 levels, phospho-MLKL levels in HMC3 cells. Cells were pretreated with Z-VAD-FMK […]. After 30 min, human TNFα 20 ng/ml, SM-164 100 nM and RIPK1 inhibitor (0.1, 1, 10 nM) were treated for 7 h under serum free media. Cells were lysed with cold lysis buffer containing 25 mM HEPES pH 7.6, […] NaCl, 1% NP40, 1% sodium deoxycholate, 0.1% SDS, and protease inhibitor mixture (Bimake, Houston, USA) using sonicators. The cells were centrifuged at 15,000 rpm, 4° C. for 5 min. After protein concentration of the lysates (supernatants) was quantified using BCA assay (Thermo Fisher Scientific, Waltham, USA), lysates were mixed with LDS sample buffer and heating at […] for 10 min. (Invitrogen, California, USA). […] The membranes are placed in an image analyzer (Imagequant, LAS 500, GE Healthcare), connected to a computer which allows the image generation (software Image reader LAS 500).

Compound | pIC50 (RIPK1 [2]) | pIC50 (RIPK1 [1])
CN1C(=O)[C@@H](NC(=O)n2cc(Cc3cccc(F)c3)cn2)COc2ccc(C(=O)N3CCC(F)(F)CC3)cc21 [Example 3] | 7.30 to 8.00 | 7.30 to 8.00
CN1C(=O)[C@@H](NC(=O)n2cc(Cc3cccc(F)c3)cn2)COc2ccc(OCC#CC(C)(C)O)cc21 [Example 22, (S)-4-(3-fluorobenzyl)-N-(7-((4-hydroxy-4-methylpent-2-yn-1-yl)oxy)-5-methyl-4-oxo-2,3,4,5-tetrahydrobenzo[b][1,4]oxazepin-3-yl)-1H-pyrazole-1-carboxamide] | > 8.00 | > 8.00
CN1C(=O)[C@@H](NC(=O)n2cc(Cc3cccc(F)c3)cn2)COc2ccc(O[C@H]3CC[C@H](O)CC3)cc21 [Example 35, 4-(3-fluorobenzyl)-N—((S)-7-(((1r,4S)-4-hydroxycyclohexyl)oxy)-5-methyl-4-oxo-2,3,4,5-tetrahydrobenzo[b][1,4]oxazepin-3-yl)-1H-pyrazole-1-carboxamide] | > 8.00 | > 8.00
CN1C(=O)[C@@H](NC(=O)n2cc(Cc3cccc(F)c3)cn2)COc2ccc(O[C@H]3CC[C@@H](O)CC3)cc21 [Example 34, 4-(3-fluorobenzyl)-N—((S)-7-(((1s,4R)-4-hydroxycyclohexyl)oxy)-5-methyl-4-oxo-2,3,4,5-tetrahydrobenzo[b][1,4]oxazepin-3-yl)-1H-pyrazole-1-carboxamide] | > 8.00 | > 8.00
CN1C(=O)[C@@H](NC(=O)n2cc(Cc3cccc(F)c3)cn2)COc2ccc(OC3CCC(C)(C)CC3)cc21 [Example 31, (S)—N-(7-((4,4-dimethylcyclohexyl)oxy)-5-methyl-4-oxo-2,3,4,5-tetrahydrobenzo[b][1,4]oxazepin-3-yl)-4-(3-fluorobenzyl)-1H-pyrazole-1-carboxamide] | > 8.00 | > 8.00
CN1C(=O)[C@@H](NC(=O)n2cc(Cc3cccc(F)c3)cn2)COc2ccc(OCCN3CCC(C)(O)CC3)cc21 [Example 18, (S)-4-(3-fluorobenzyl)-N-(7-(2-(4-hydroxy-4-methylpiperidin-1-yl)ethoxy)-5-methyl-4-oxo-2,3,4,5-tetrahydrobenzo[b][1,4]oxazepin-3-yl)-1H-pyrazole-1-carboxamide] | > 8.00 | > 8.00
CN1C(=O)[C@@H](NC(=O)n2cc(Cc3cccc(F)c3)cn2)COc2ccc(OC3CCCCC3)cc21 [Example 30, (S)—N-(7-(cyclohexyloxy)-5-methyl-4-oxo-2,3,4,5-tetrahydrobenzo[b][1,4]oxazepin-3-yl)-4-(3-fluorobenzyl)-1H-pyrazole-1-carboxamide] | > 8.00 | > 8.00

Now from value to molecule, other results behind:

pIC50 (RIPK1 [2]) | Compound | pIC50 (RIPK1 [1])
> 8.00 | CN1C(=O)[C@@H](NC(=O)n2cc(Cc3cccc(F)c3)cn2)COc2ccc(OCC(O)c3ccccn3)cc21 (stereo partly drawn) [Example 69, 4-(3-fluorobenzyl)-N-((3S)-7-(2-hydroxy-2-(pyridin-2-yl)ethoxy)-5-methyl-4-oxo-2,3,4,5-tetrahydrobenzo[b][1,4]oxazepin-3-yl)-1H-pyrazole-1-carboxamide] | > 8.00
> 8.00 | CN1C(=O)[C@@H](NC(=O)n2cc(Cc3cccc(F)c3)cn2)COc2ccc(OCC3CCOCC3)cc21 [Example 55, (S)-4-(3-fluorobenzyl)-N-(5-methyl-4-oxo-7-((tetrahydro-2H-pyran-4-yl)methoxy)-2,3,4,5-tetrahydrobenzo[b][1,4]oxazepin-3-yl)-1H-pyrazole-1-carboxamide] | > 8.00
7.30 to 8.00 | Cc1nnc(COc2ccc3c(c2)N(C)C(=O)[C@@H](NC(=O)n2cc(Cc4cccc(F)c4)cn2)CO3)o1 [Example 64, (S)-4-(3-fluorobenzyl)-N-(5-methyl-7-((5-methyl-1,3,4-oxadiazol-2-yl)methoxy)-4-oxo-2,3,4,5-tetrahydrobenzo[b][1,4]oxazepin-3-yl)-1H-pyrazole-1-carboxamide] | 7.30 to 8.00
> 8.00 | CN1C(=O)[C@@H](NC(=O)n2cc(Cc3cccc(F)c3)cn2)COc2ccc(OCC(=O)N3CCCCC3)cc21 [Example 36, (S)-4-(3-fluorobenzyl)-N-(5-methyl-4-oxo-7-(2-oxo-2-(piperidin-1-yl)ethoxy)-2,3,4,5-tetrahydrobenzo[b][1,4]oxazepin-3-yl)-1H-pyrazole-1-carboxamide] | > 8.00
> 8.00 | COc1cc(COc2ccc3c(c2)N(C)C(=O)[C@@H](NC(=O)n2cc(Cc4cccc(F)c4)cn2)CO3)ccn1 [Example 61, (S)-4-(3-fluorobenzyl)-N-(7-((2-methoxypyridin-4-yl)methoxy)-5-methyl-4-oxo-2,3,4,5-tetrahydrobenzo[b][1,4]oxazepin-3-yl)-1H-pyrazole-1-carboxamide] | > 8.00
> 8.00 | CN1C(=O)[C@@H](NC(=O)n2cc(Cc3cccc(F)c3)cn2)COc2ccc(OCC(=O)N3CC[C@@H](O)C3)cc21 [Example 47, 4-(3-fluorobenzyl)-N—((S)-7-(2-((R)-3-hydroxypyrrolidin-1-yl)-2-oxoethoxy)-5-methyl-4-oxo-2,3,4,5-tetrahydrobenzo[b][1,4]oxazepin-3-yl)-1H-pyrazole-1-carboxamide] | > 8.00
> 8.00 | CN1C(=O)[C@@H](NC(=O)n2cc(Cc3cccc(F)c3)cn2)COc2ccc(OCc3ccnc(F)c3)cc21 [Example 60, (S)-4-(3-fluorobenzyl)-N-(7-((2-fluoropyridin-4-yl)methoxy)-5-methyl-4-oxo-2,3,4,5-tetrahydrobenzo[b][1,4]oxazepin-3-yl)-1H-pyrazole-1-carboxamide] | > 8.00
> 8.00 | CN1C(=O)[C@@H](NC(=O)n2cc(Cc3cccc(F)c3)cn2)COc2ccc(OCC(=O)N3CCCC3)cc21 [Example 44, (S)-4-(3-fluorobenzyl)-N-(5-methyl-4-oxo-7-(2-oxo-2-(pyrrolidin-1-yl)ethoxy)-2,3,4,5-tetrahydrobenzo[b][1,4]oxazepin-3-yl)-1H-pyrazole-1-carboxamide] | > 8.00
> 8.00 | CCN(CC(C)(C)O)C(=O)COc1ccc2c(c1)N(C)C(=O)[C@@H](NC(=O)n1cc(Cc3cccc(F)c3)cn1)CO2 [Example 53, (S)—N-(7-(2-(ethyl(2-hydroxy-2-methylpropyl)amino)-2-oxoethoxy)-5-methyl-4-oxo-2,3,4,5-tetrahydrobenzo[b][1,4]oxazepin-3-yl)-4-(3-fluorobenzyl)-1H-pyrazole-1-carboxamide] | > 8.00
> 8.00 | CN1C(=O)[C@@H](NC(=O)n2cc(Cc3cccc(F)c3)cn2)COc2ccc(OCC(=O)NC3CC3)cc21 [Example 51, (S)—N-(7-(2-(cyclopropylamino)-2-oxoethoxy)-5-methyl-4-oxo-2,3,4,5-tetrahydrobenzo[b][1,4]oxazepin-3-yl)-4-(3-fluorobenzyl)-1H-pyrazole-1-carboxamide] | > 8.00
> 8.00 | CN1C(=O)[C@@H](NC(=O)n2cc(Cc3cccc(F)c3)cn2)COc2ccc(OCc3ccccc3)cc21 [Example 56, (S)—N-(7-(benzyloxy)-5-methyl-4-oxo-2,3,4,5-tetrahydrobenzo[b][1,4]oxazepin-3-yl)-4-(3-fluorobenzyl)-1H-pyrazole-1-carboxamide] | > 8.00
